From patent publication US20250332176A1, “TREATMENT FOR FIBROSIS AND INHIBITION OF FIBROSIS” (GALMED RESEARCH AND DEVELOPMENT LTD, priority 2022, published 2025)
Values joined by “and” are separate entries in the source; they are usually repeats but may differ in a detail not shown here. Equal entries are not always repeated. “Also recorded” adds a separate entry of the source.

Assays:
human NAFLD = assay: 3-month phase 2a human NAFLD study; format: in vivo
[1] = system: LX-2, a human hepatic stellate cell line; assay: Mechanistic study in hepatic stellate cells (qPCR, Western, RNAseq, GSEA); format: cell-based; details: Aramchol 10 μM
Description: (§1) Serum-starved LX2 cells were treated with Aramchol™ (10 μM) for 24 or 48 hours. Fibrogenic gene expression and SCD-1 protein expression were measured by qPCR and Western, respectively. RNAseq was performed at 24 and 48 h in duplicate. Differential gene expression was assessed with DSeq2, while gene set enrichment analysis (GSEA) and gene ontology (GO) analyses assessed functionality of gene expression changes. Primary hepatocytes from C57BL/6 mice were harvested by perfusion and treated with Aramchol™ ([…]) for 48 hours in culture. PPAR γ mRNA expression was measured by qPCR.

0.1MCD-fed mice = assay: 0.1% methionine- and choline-deficient (0.1MCD) diet mouse model of NASH; format: in vivo
Text: The study described below investigates the mechanism of action of Aramchol™ and its potential effect on fibrosis using the 0.1% methionine- and choline-deficient (0.1MCD) diet mouse model of NASH.
C57BI/6 were fed the Methionine and Choline Deficient (MCD) and control diet and were sacrificed after 4 weeks. The MCD diet induces aminotransferase elevation and changes in hepatic histological features, characterized by steatosis, local inflammation, hepatocyte necrosis and fibrosis. These changes occur rapidly and are morphologically similar to those observed in human NASH. In this study the MCD diet contained 0.1% methionine to minimize and stabilize weight loss. At the end of the second week, after verification of established NASH, 0.1MCD-fed mice were treated orally by gavage with Aramchol™ (5 mg/Kg/day) or vehicle (n=10, each condition). Control diet-fed mice were also treated with vehicle for same duration (n=10). At the end of the experiment, blood and liver samples were obtained. A diagram of the experimental design is shown below: […]

Wistar rats = assay: Thioacetamide (TAA)-induced fibrosis, model for hepatic cirrhosis; format: in vivo; details: 5 mg/kg, co-administered with TAA during 10 weeks
Description: Liver fibrosis was induced in Wistar rats by intraperitoneal injections of TAA (20 mg/100 gr body weight) twice per week during 10 weeks. I.p. application of TAA results in hepatic centrolobular necrosis, elevated transaminase activity and robust liver fibrosis. Treatment groups further included co-administration of Aramchol™ (1 or 5 mg/kg orally) or obaticholic acid (OCA, 5 mg/kg). A control group of saline-treated rats (in the absence of TAA administration) was further included. Rats were then sacrificed, and livers were observed macroscopically for signs of cirrhosis and necrotic lesions, and microscopically, following Masson Goldner staining. The fibrosis score, calculated at a scale of 0-4, was determined for each sample, wherein 0 indicates no fibrosis and 4 indicates advanced fibrosis and cirrhosis.

[2] = system: LX-2 human hepatic stellate cells; assay: Inhibition of collagen synthesis in stellate cells (COL1A1, PPARγ expression, collagen production); format: cell-based
Description: LX2 cells (150.000 cells per well) were plated in DMEM media containing antibiotics, glutamine and bovine fetal serum. After 24 hours incubation, media was changed to 0% serum and incubated for an additional period of 16 hours. Then, Aramchol™ (10 mM) was added and 24 hours later RNA was extracted with Trizol.

[3] = Modelling and simulation of 300 mg BID and 600 mg QD doses in patients (Phoenix 64, single compartment); set-up: species or system human; details: correction for sub-proportional PK
Description: Given the sub-proportional exposure generally seen, splitting the same total daily dose into two BID doses is likely to increase plasma AUC. The aim of this analysis was to model this behavior.
The 300 mg data on day 1 and day 84 in patients (Phase 2 ARAMCHOL™ 003) has been modelled in Phoenix 64@ assuming single compartment pharmacokinetics (parameterized by Cl and V) and first order absorption at a rate Ka with a delay, Tlag. The fitted model parameters all have a CV<25% and the predicted concentration data reasonably capture the observed data as shown in FIGS. 13A-13C.
To predict exposure at 600 mg, a correction for sub-proportional PK (lower bioavailability at higher dose) has been made assuming the same non-linearity at observed in healthy volunteers.

[4] = Phase 1 single dose plasma exposure in healthy volunteers; format: in vivo, human; details: for AUC: human, plasma, oral, AUC=AUCinf
Description: Table 1 summarizes the reported plasma exposure from three studies-single dose Phase I in healthy volunteers (30-900 mg, AUC=AUCinf); Phase II ARAMCHOL™ 003 repeat dose study (AUC on D84 from 100 & 300 mg QD), Phase IIb Cmin on D84 (400 and 600 mg QD).
Biovailability relative to 30 […] has been calculated as (AUC/Dose)/(AUC/30 mg) and is plotted for this group in FIG. 11.

[5] = system: Primary hepatocytes from C57BL/6 mice; assay: PPARγ mRNA expression in primary hepatocytes (qPCR); format: cell-based; details: Aramchol 10 μM, 48 hours
Description: as §1

[6] = 5 mg/Kg/day orally by gavage from end of second week to week 4
[7] = 5 mg/Kg/day orally by gavage, liver

relative bioavailability at 600 mg compared to 300 mg [3]: approximately 0.75 fold | exposure (AUC) of single 900 mg dose higher than single 300 mg dose [4]: 1.35 fold | decrease in AUC/Dose across the dose range ([4]; 30-900 mg): four-fold | AUC ([4]; single dose 30 mg): 11900 ng·h/mL | AUC ([4]; single dose 100 mg): 25700 ng·h/mL | AUC ([4]; single dose 300 mg): 64300 ng·h/mL | AUC ([4]; single dose 900 mg): 86900 ng·h/mL | AUC/Dose ([4]; single dose 30 mg): 397 ng/mL · h/(mg/kg) | Relative bioavailability (AUC/Dose normalized to 30 mg HV data) ([4]; single dose 30 mg): 1 | AUC/Dose ([4]; single dose 100 mg): 257 ng/mL · h/(mg/kg) | Relative bioavailability (AUC/Dose normalized to 30 mg HV data) ([4]; single dose 100 mg): 0.65 | AUC/Dose ([4]; single dose 300 mg): 214 ng/mL · h/(mg/kg) | Relative bioavailability (AUC/Dose normalized to 30 mg HV data) ([4]; single dose 300 mg): 0.53 and 0.54 | AUC/Dose ([4]; single dose 900 mg): 97 ng/mL · h/(mg/kg) | Relative bioavailability (AUC/Dose normalized to 30 mg HV data) ([4]; single dose 900 mg): 0.24
Compound: CCCCCCCCCCCCCCCCCCCC(=O)N[C@H]1CC[C@@]2(C)[C@@H](C1)C[C@@H](O)[C@@H]1[C@@H]2C[C@H](O)[C@]2(C)[C@@H]([C@H](C)CCC(=O)O)CC[C@@H]12 [Aramchol™, 3β-arachidylamido-7α, 12α-dihydroxy-5β-cholan-24-oic acid]
hepatic fat (human NAFLD): reduced | cholesterol biosynthesis (Gene Set Enrichment Analysis) ([1]; 24 or 48 hours): downregulates | collagen formation (Gene Set Enrichment Analysis) ([1]; 24 or 48 hours): downregulates | PPARγ mRNA (RT-PCR) ([1]; 24 or 48 hours, serum-starved): upregulates | SCD-1 mRNA (RT-PCR) ([1]; 24 or 48 hours, serum-starved): downregulates | fibrogenic genes (RT-PCR) ([1]; 24 or 48 hours, serum-starved): downregulates | SCD-1 protein (Western Blot, densitometry) ([1]; 24 or 48 hrs): downregulates | PPARγ mRNA (RNASeq) ([1]; 48 hrs): upregulation | cholesterol efflux regulatory protein ABCA1 (RNASeq) ([1]; 48 hrs): upregulated | fibrogenic genes and SCD-1 mRNA (RNASeq) ([1]; 48 hrs): downregulation; also recorded: downregulates | hepatic content of diglycerides (DG) and TG (0.1MCD-fed mice; 5 mg/Kg/day orally by gavage): reduction | GSH/GSSG ratio (0.1MCD-fed mice; [6]): elevates; also recorded: normalization | collagen in the liver (liver extract) (0.1MCD-fed mice; [6]): significantly down regulates | fibrosis in the liver (sirius red) (0.1MCD-fed mice; [6]): significantly down regulates/normalizes | glutathione in liver (0.1MCD-fed mice; [6]): significantly up regulates | infiltration and activation status of macrophages in the liver (F4/80, CD64) (0.1MCD-fed mice; [6]): significantly down regulates/normalizes | steatosis in the liver (Sudan III) (0.1MCD-fed mice; [6]): significantly down regulates | FA(16:1)/FA(16:0) ratio (0.1MCD-fed mice; [7]): marked decrease | SCD1 activity (0.1MCD-fed mice; [7]): reduced | SCD1 expression (0.1MCD-fed mice; [7]): marked decrease | content of total oxFA including oxLA (0.1MCD-fed mice; [7]): marked reduction | total content of monounsaturated FA (MUFA) (0.1MCD-fed mice; [7]): marked decrease | TAA induced fibrosis (Wistar rats): significantly prevented | development of necrosis and cirrhosis (macroscopic) (Wistar rats): reduced significantly; also recorded: significantly inhibited | fibrotic score and collagen distribution in the tissue (Masson Goldner staining) (Wistar rats; score scale 0-4): reduced significantly | COL1A1 expression ([2]; Aramchol 10 mM, 24 hours, RNA): significantly reduced | PPARγ expression ([2]; Aramchol 10 mM, 24 hours, RNA): up-regulation | collagen production ([2]; relative to a DMSO control): significantly down regulates | PPARγ mRNA expression (qPCR) [5]: does not affect
